Laboratory results from ChEMBL document CHEMBL4020788, “Synthesis, SAR and molecular docking studies of benzo[d]thiazole-hydrazones as potential antibacterial and antifungal agents” (2017).
Activity calls are given as the source filed them. No cut-off for these calls is given here.

Assays:
Format in all cases: functional
Staphylococcus aureus [1] = assay: Antibacterial activity against Staphylococcus aureus at 75 ug/ml after 24 hrs by agar well diffusion method
Bacillus subtilis [2] = assay: Antibacterial activity against Bacillus subtilis at 75 ug/ml after 24 hrs by agar well diffusion method
Escherichia coli [3] = assay: Antibacterial activity against Escherichia coli at 25 ug/ml after 24 hrs by agar well diffusion method
Fusarium oxysporum [4] = assay: Antifungal activity against Fusarium oxysporum at 100 ug/ml after 48 hrs by agar well diffusion method; settings: read-out: DIZ
Fusarium verticillioides [5] = assay: Antifungal activity against Fusarium moniliforme at 50 ug/ml after 48 hrs by agar well diffusion method
Bacillus subtilis [6] = assay: Antibacterial activity against Bacillus subtilis at 100 ug/ml after 24 hrs by agar well diffusion method
Fusarium oxysporum [7] = assay: Antifungal activity against Fusarium oxysporum at 75 ug/ml after 48 hrs by agar well diffusion method; settings: read-out: DIZ
Klebsiella pneumoniae [8] = assay: Antibacterial activity against Klebsiella pneumoniae at 50 ug/ml after 24 hrs by agar well diffusion method; settings: read-out: DIZ
Fusarium oxysporum [9] = assay: Antifungal activity against Fusarium oxysporum at 25 ug/ml after 48 hrs by agar well diffusion method
Fusarium verticillioides [10] = assay: Antifungal activity against Fusarium moniliforme at 25 ug/ml after 48 hrs by agar well diffusion method
Escherichia coli [11] = assay: Antibacterial activity against Escherichia coli at 100 ug/ml after 24 hrs by agar well diffusion method
Bacillus subtilis [12] = assay: Antibacterial activity against Bacillus subtilis at 50 ug/ml after 24 hrs by agar well diffusion method
Klebsiella pneumoniae [13] = assay: Antibacterial activity against Klebsiella pneumoniae at 100 ug/ml after 24 hrs by agar well diffusion method; settings: read-out: DIZ
Escherichia coli [14] = assay: Antibacterial activity against Escherichia coli at 50 ug/ml after 24 hrs by agar well diffusion method
Bacillus subtilis [15] = assay: Antibacterial activity against Bacillus subtilis at 25 ug/ml after 24 hrs by agar well diffusion method
Klebsiella pneumoniae [16] = assay: Antibacterial activity against Klebsiella pneumoniae at 25 ug/ml after 24 hrs by agar well diffusion method; settings: read-out: DIZ
Staphylococcus aureus [17] = assay: Antibacterial activity against Staphylococcus aureus at 100 ug/ml after 24 hrs by agar well diffusion method
Staphylococcus aureus [18] = assay: Antibacterial activity against methicillin resistant Staphylococcus aureus MRSA090 at 25 ug/ml after 24 hrs by agar well diffusion method
Staphylococcus aureus [19] = assay: Antibacterial activity against methicillin resistant Staphylococcus aureus MRSA090 at 100 ug/ml after 24 hrs by agar well diffusion method
Fusarium verticillioides [20] = assay: Antifungal activity against Fusarium moniliforme at 100 ug/ml after 48 hrs by agar well diffusion method; settings: read-out: DIZ
Aspergillus niger [21] = assay: Antifungal activity against Aspergillus niger at 50 ug/ml after 48 hrs by agar well diffusion method
Escherichia coli [22] = assay: Antibacterial activity against Escherichia coli at 75 ug/ml after 24 hrs by agar well diffusion method
Staphylococcus aureus [23] = assay: Antibacterial activity against methicillin resistant Staphylococcus aureus MRSA090 at 50 ug/ml after 24 hrs by agar well diffusion method
Staphylococcus aureus [24] = assay: Antibacterial activity against Staphylococcus aureus at 50 ug/ml after 24 hrs by agar well diffusion method
Staphylococcus aureus [25] = assay: Antibacterial activity against Staphylococcus aureus at 25 ug/ml after 24 hrs by agar well diffusion method
Staphylococcus aureus [26] = assay: Antibacterial activity against methicillin resistant Staphylococcus aureus MRSA090 at 75 ug/ml after 24 hrs by agar well diffusion method
Aspergillus niger [27] = assay: Antifungal activity against Aspergillus niger at 25 ug/ml after 48 hrs by agar well diffusion method
Fusarium verticillioides [28] = assay: Antifungal activity against Fusarium moniliforme at 75 ug/ml after 48 hrs by agar well diffusion method; settings: read-out: DIZ
Fusarium oxysporum [29] = assay: Antifungal activity against Fusarium oxysporum at 50 ug/ml after 48 hrs by agar well diffusion method
Aspergillus niger [30] = assay: Antifungal activity against Aspergillus niger at 100 ug/ml after 48 hrs by agar well diffusion method
Aspergillus niger [31] = assay: Antifungal activity against Aspergillus niger at 75 ug/ml after 48 hrs by agar well diffusion method
Klebsiella pneumoniae [32] = assay: Antibacterial activity against Klebsiella pneumoniae at 75 ug/ml after 24 hrs by agar well diffusion method; settings: read-out: DIZ

Structure (SMILES): Cc1cccc2nc(N/N=C/c3ccc(Oc4ccccc4)cc3)sc12
- diameter of the inhibition zone (DIZ) (Staphylococcus aureus [1]): inactive
- diameter of the inhibition zone (DIZ) (Bacillus subtilis [2]): inactive
- diameter of the inhibition zone (DIZ) (Escherichia coli [3]): inactive
- zone of inhibition at 100 µg/mL (Fusarium oxysporum [4]): 15 mm
- diameter of the inhibition zone (DIZ) (Fusarium verticillioides [5]): inactive
- diameter of the inhibition zone (DIZ) (Bacillus subtilis [6]): inactive
- zone of inhibition at 75 µg/mL (Fusarium oxysporum [7]): 10 mm
- zone of inhibition at 50 µg/mL (Klebsiella pneumoniae [8]): 18 mm
- diameter of the inhibition zone (DIZ) (Fusarium oxysporum [9]): inactive
- diameter of the inhibition zone (DIZ) (Fusarium verticillioides [10]): inactive
- diameter of the inhibition zone (DIZ) (Escherichia coli [11]): inactive
- diameter of the inhibition zone (DIZ) (Bacillus subtilis [12]): inactive
- zone of inhibition at 100 µg/mL (Klebsiella pneumoniae [13]): 15 mm
- diameter of the inhibition zone (DIZ) (Escherichia coli [14]): inactive
- diameter of the inhibition zone (DIZ) (Bacillus subtilis [15]): inactive
- zone of inhibition at 25 µg/mL (Klebsiella pneumoniae [16]): 4 mm
- diameter of the inhibition zone (DIZ) (Staphylococcus aureus [17]): inactive
- diameter of the inhibition zone (DIZ) (Staphylococcus aureus [18]): inactive
- diameter of the inhibition zone (DIZ) (Staphylococcus aureus [19]): inactive
- zone of inhibition at 100 µg/mL (Fusarium verticillioides [20]): 14 mm
- diameter of the inhibition zone (DIZ) (Aspergillus niger [21]): inactive
- diameter of the inhibition zone (DIZ) (Escherichia coli [22]): inactive
- diameter of the inhibition zone (DIZ) (Staphylococcus aureus [23]): inactive
- diameter of the inhibition zone (DIZ) (Staphylococcus aureus [24]): inactive
- diameter of the inhibition zone (DIZ) (Staphylococcus aureus [25]): inactive
- diameter of the inhibition zone (DIZ) (Staphylococcus aureus [26]): inactive
- diameter of the inhibition zone (DIZ) (Aspergillus niger [27]): inactive
- zone of inhibition at 75 µg/mL (Fusarium verticillioides [28]): 8 mm
- diameter of the inhibition zone (DIZ) (Fusarium oxysporum [29]): inactive
- diameter of the inhibition zone (DIZ) (Aspergillus niger [30]): inactive
- diameter of the inhibition zone (DIZ) (Aspergillus niger [31]): inactive
- zone of inhibition at 75 µg/mL (Klebsiella pneumoniae [32]): 11 mm

Structure (SMILES): Cc1cccc2nc(N/N=C/c3ccc([N+](=O)[O-])cc3)sc12
- zone of inhibition at 75 µg/mL (Staphylococcus aureus [1]; read-out: DIZ): 12 mm
- zone of inhibition at 75 µg/mL (Bacillus subtilis [2]; read-out: DIZ): 8 mm
- zone of inhibition at 25 µg/mL (Escherichia coli [3]; read-out: DIZ): 4 mm
- zone of inhibition at 100 µg/mL (Fusarium oxysporum [4]): 21 mm
- diameter of the inhibition zone (DIZ) (Fusarium verticillioides [5]): inactive
- zone of inhibition at 100 µg/mL (Bacillus subtilis [6]; read-out: DIZ): 11 mm
- zone of inhibition at 75 µg/mL (Fusarium oxysporum [7]): 14 mm
- zone of inhibition at 50 µg/mL (Klebsiella pneumoniae [8]): 11 mm
- zone of inhibition at 25 µg/mL (Fusarium oxysporum [9]; read-out: DIZ): 6 mm
- diameter of the inhibition zone (DIZ) (Fusarium verticillioides [10]): inactive
- zone of inhibition at 100 µg/mL (Escherichia coli [11]; read-out: DIZ): 14 mm
- zone of inhibition at 50 µg/mL (Bacillus subtilis [12]; read-out: DIZ): 4 mm
- zone of inhibition at 100 µg/mL (Klebsiella pneumoniae [13]): 16 mm
- zone of inhibition at 50 µg/mL (Escherichia coli [14]; read-out: DIZ): 18 mm
- diameter of the inhibition zone (DIZ) (Bacillus subtilis [15]): inactive
- zone of inhibition at 25 µg/mL (Klebsiella pneumoniae [16]): 7 mm
- zone of inhibition at 100 µg/mL (Staphylococcus aureus [17]; read-out: DIZ): 14 mm
- zone of inhibition at 25 µg/mL (Staphylococcus aureus [18]; MRSA090, 24 h, read-out: DIZ): 3 mm
- zone of inhibition at 100 µg/mL (Staphylococcus aureus [19]; MRSA090, 24 h, read-out: DIZ): 16 mm
- zone of inhibition at 100 µg/mL (Fusarium verticillioides [20]): 8 mm
- zone of inhibition at 50 µg/mL (Aspergillus niger [21]; read-out: DIZ): 13 mm
- zone of inhibition at 75 µg/mL (Escherichia coli [22]; read-out: DIZ): 11 mm
- zone of inhibition at 50 µg/mL (Staphylococcus aureus [23]; MRSA090, 24 h, read-out: DIZ): 7 mm
- zone of inhibition at 50 µg/mL (Staphylococcus aureus [24]; read-out: DIZ): 9 mm
- zone of inhibition at 25 µg/mL (Staphylococcus aureus [25]; read-out: DIZ): 7 mm
- zone of inhibition at 75 µg/mL (Staphylococcus aureus [26]; MRSA090, 24 h, read-out: DIZ): 10 mm
- zone of inhibition at 25 µg/mL (Aspergillus niger [27]; read-out: DIZ): 6 mm
- zone of inhibition at 75 µg/mL (Fusarium verticillioides [28]): 4 mm
- zone of inhibition at 50 µg/mL (Fusarium oxysporum [29]; read-out: DIZ): 10 mm
- zone of inhibition at 100 µg/mL (Aspergillus niger [30]; read-out: DIZ): 21 mm
- zone of inhibition at 75 µg/mL (Aspergillus niger [31]; read-out: DIZ): 17 mm
- zone of inhibition at 75 µg/mL (Klebsiella pneumoniae [32]): 14 mm
